From US11760733B2, “Small molecule regulators of mitochondrial fusion and methods of use thereof” (Washington University, priority 2017, dated 2023) come the findings set out here.

“Also recorded” adds a separate entry of the source.

The subject of experiment [1] is MFN2 Asp378 and Ala378 mutants. Briefly: Mitochondrial fusion in cells expressing MFN2 Ser378 mutants. In kind it is cell-based, human. Conditions: phosphomimic Asp378 vs nonphosphorylatable Ala378. An excerpt: On the basis of fluorescence resonance energy transfer (FRET) analysis of MFN2 labeled at the N and C termini, mitofusin agonists promoted an open MFN2 conformation favoring mitochondrial fusion, with a rank order paralleling that for HR2 binding and mitochondrial fusion (see e.g., FIG. 11G; compare to FIG. 11B and FIG. 11C), supporting allosteric activation.
Human Mfn2 Ser378 was mutated to Ala or Asp by site-directed mutagenesis using the QuikChange Lightning kit (Agilent Technologies Inc.) and primers: […]
Mfn2 and its mutants were sub-cloned into adenoviral vector Type 5 (dE1/E3) with RGD-fiber modification (Vector Biolabs) using BamHI/XhoI. All constructs were verified by Sanger DNA sequencing. Adeno-viral PINK1 was purchased from Vector Biolabs.

For experiment [2], the system named is ALS and HD patient-derived fibroblasts. Briefly: Mitochondrial health in ALS and HD patient-derived fibroblasts. The experiment is classed as cell-based, human. How it is done:
HD patient-derived fibroblast cell lines (GM04693 from patient and GM05539 from patient) were purchased from Invitrogen. ALS patient-derived fibroblasts (ALS 1: ND29509 from patient having SOD1 mutation; ALS 2: ND30327 having FUS1 mutation) and fibroblasts of control healthy individuals were purchased from Coriell Institute, USA. All fibroblast cultures were maintained in MEM supplemented with 15% (v/v) FBS and 1% (v/v) penicillin/streptomycin at 37° C. in 5% CO2-95% air. Galactose media was used, to increase mitochondria-dependent metabolism oxidative phosphorylation. Human fibroblasts were switched to grow for 48 h in DMEM deprived of glucose and containing galactose (4.5 g/l), 1% FBS, 5 mM sodium pyruvate and 2 mM L-glutamine for the studies.
Cells cultured in 8-well chamber slides were washed with cold PBS, fixed in 4% formaldehyde, and permeabilized with 0.1% Triton X-100. After incubation with 2% normal goat serum (to block nonspecific staining), fixed cells were incubated overnight at 4° C. with TOM20 antibody (1:500) (Santa Cruz, USA). Cells were washed with PBS and incubated for 60 minutes with FITC-conjugated goat anti-rabbit IgG (1:500 dilution). The cells were then washed gently with PBS and counterstained with Hoechst 33342 (1:10,000 dilution, Molecular Probes) to visualize nuclei. The coverslips were mounted with Slow-fade anti-fade reagent (Invitrogen), and images were acquired at 60× using an All-in-One Fluorescence Microscope BZ-X700 (Keyence).
Cells were incubated with tetra-methyl-rhodamine methyl ester (TMRM, 25 nM, Invitrogen) in HBSS (Hank's balanced salt solution) for 30 min at 37° C., per the manufacture's protocol, and the fluorescence was analyzed to measure mitochondrial membrane potential. All data were normalized with respect to the fluorescence intensity of control cells. To determine mitochondrial ROS production, cells were treated with 5 μM MitoSOX™ Red, a mitochondrial superoxide indicator (Invitrogen) for 20 min at 37° C., according to the manufacturer's protocol, and fluorescence was analyzed using SpectraMax M2e (Molecular devices).

The target in a further experiment is T1, Mfn2 HR2 target peptide (Homo sapiens, UniProt O95140).
T1 construct: Gly linker (GGGG after the His tag)
T1 sequence (O95140 with tags, fused parts or gaps limits assumed): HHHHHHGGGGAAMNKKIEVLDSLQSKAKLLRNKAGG
Briefly: HR1 peptide-HR2 target binding assay. The text has this:
The Mfn-derived fusion-promoting and -inhibiting mini-peptides (simulated to obtain the chemical Mfn agonists in TABLE 1 and TABLE 2) were modified from amino acid heptad repeats (HR) in the HR1 domain and predicted to interact with their counterparts in the carboxyl terminus HR2 domain within the Mfn stalk region (see e.g., FIG. 1, top panel). A high-throughput binding assay was designed whereby the target HR2 peptide sequences, modified to include amino terminal 6×His tags and Gly linkers, were bonded to Ni-chelate resin (20 μg/ml) and used as immobilized “receptor” for amino-FITC-tagged Mfn2 374-384 (agonist ligand) in which the Ser analogous to Ser378 was replaced with Asp to confer the negative charge essential for activity. For antagonist studies the ligand was amino-FITC-tagged Mfn2 406-418. The FITC peptide ligands are suspended at 1 mM in 30% DMSO, 70% water (to minimize spontaneous aggregation) and diluted into binding buffer (de-ionized water) to a final concentration of 25 μM in the presence or absence of competing compound. Dose-dependent loss of resin-bound FITC signal (485 nm excitation/538 nm emission) measured in a 96 well spectrofluorometer represents binding of compound to its HR2 target (see e.g., FIG. 10, FIG. 11). Either the ligand peptide or the receptor peptide can be modified to represent mutations, variations, or posttranslational modifications of Mfn2. […]
Target HR2 peptide sequence modified to include amino terminal 6×His tags and Gly linkers, were bonded to Ni-NTA resin (4.4 μg/ml) (Quiagen) and used as immobilized “receptor” for amino-FITC-tagged Mfn2 374-384 (ligand) in which the Ser analogous to Ser378 was replaced with Asp to confer the negative charge essential for activity. […] Resin-bound FITC signal (485 nm excitation/538 nm emission) measured in a 96 well spectrofluorometer (Spectramax M5e, Molecular Devices) represented binding to HR2 target. Competition binding isotherms were plotted and IC50 values calculated using Prism 7 (Graph Pad).

For experiment [3], the system named is MFN2 T105M sciatic nerves. Kind of experiment: Sciatic nerve axonal mitochondrial motility, agonist applied to nerve. Conditions: MFN2 T105M mouse sciatic nerve. How it is done: Sciatic nerves of 12-18 week old male or female MFN2 T105M mice were removed en bloc with the lumbar spine and axotomy at the tibial nerve, stained with TMEM ([…]) for 30 minutes in prewarmed Neurobasal Medium without phenol red (Thermo Fisher Scientific) at room temperature, washed, and maintained on the stage of a Nikon A1Rsi Confocal Microscope at 37 degrees C. for time-lapse confocal studies. Images were acquired with a 40× oil immersion objective at 1 frame every 5 or 10 seconds for sequential 10 minute periods. Mitofusin agonist chimera B-A/I was added after the first 10 minute imaging period (final concentrations of […]) and nerve axons imaged for another 40 minutes. Because there was no difference in mitochondrial trafficking or response to mitofusin agonist between male and female mice, the data were combined.

Consider `CC1CCCCC1NC(=O)NCCSc1nnc(C2CC2)n1-c1ccccc1` (racemic) [B-A/I, 1-(2-((5-cyclopropyl-4-phenyl-4H-1,2,4-triazol-3-yl)thio)ethyl)-3-(2-methylcyclohexyl)urea], for which the “selectivity of fusogenic effect for MFN2 Ser378 mutants” value in experiment [1] is reported as “non-selective”. The mitochondrial structural defects entry in experiment [2] (ALS and HD fibroblasts) is given as “enhances mitochondrial structural defects”. Besides, the “mitochondrial ROS levels” value in experiment [2] (ALS and HD fibroblasts, MitoSOX) is on record as “reduces mitochondrial ROS levels”. In experiment [2] (ALS and HD fibroblasts, TMRM), the mitochondrial membrane potential result is “improves mitochondrial membrane potential”. Besides, the “effect on fibroblasts from control subjects” value in experiment [2] (control fibroblasts) is “no effect”. The “competition for minipeptide binding at MFN2 HR2 site” value at Mfn2 HR2 target peptide is “competed for minipeptide binding”. The “sciatic nerve axonal mitochondrial motility” value in experiment [3] was “rapidly reverses mitochondrial dysmotility; also recorded: restored mitochondrial motility to within normal levels”.
